Assay results as given in patent US20260001828A1, “BIOBASED SURFACTANT AND ANTIOXIDANT” (BLOOM BIORENEWABLES SA, priority 2022, published 2026).

What was measured:
[1] = DPPH free radical antioxidant activity test (UV/visible spectrophotometry, 517 nm); type: biochemical
Method: The antioxidant activity is assessed by measuring the capacity of the compound to react with a free radical (here 2,2-diphenyl-1-picrylhydrazyl also known as DPPH). […] Butylated hydroxytoluene (BHT) and vitamin E were used as […] substances (positive control) and glycerol as negative control (see FIGS. 3 and 4).

[2] = Surface tension by pendant drop method, water/air interface; type: physicochemical
Method: Surface tension measurements were performed using the pendant drop method by Kruss EasyDrop Standard drop shape analysis system. […]

| Water/air interface (surface tension) ([2]; concentration 0.10 wt %) [mN/m] | Compound | inhibition rate ([1]; concentration of 5 μg/mL) [%] | inhibition rate ([1]; concentration of 10 μg/mL) [%] | inhibition rate ([1]; concentration of 50 μg/mL) [%] | other results |
| --- | --- | --- | --- | --- | --- |
| 48.3 | CCCc1cc(OC)c(O)c(OC)c1 [4-propylsyringol] | 65 | 84 | 85 | Water/air interface (surface tension) ([2]; concentration 0.50 wt %): 34.9 mN/m; Water/air interface (surface tension) ([2]; concentration 1.00 wt %): 32.3 mN/m |
|  | Cc1cc(C(C)(C)C)c(O)c(C(C)(C)C)c1 [BHT, Butylated hydroxytoluene] | 32 | 54 | 85 |  |
|  | CCCCC(CC)COC(=O)CC(C(=O)OCC(CC)CCCC)S(=O)(=O)[O-].[Na+] (centres unmarked) [DOSS, Dioctyl Sodium Sulfosuccinate] |  |  |  | Water/air interface (surface tension) ([2]; concentration 0.20 wt %): 51 mN/m |
| 45.1 | CCCc1cc(OC)c([O-])c(OC)c1.[Na+] [PSNa, 4-propylsyringol sodium salt] |  |  |  | Water/air interface (surface tension) ([2]; concentration 0.50 wt %): 39.8 mN/m; Water/air interface (surface tension) ([2]; concentration 1.00 wt %): 33.8 mN/m |
|  | CCCCCCCCCCCCOS(=O)(=O)[O-].[Na+] [SLS, sodium lauryl sulfate] |  |  |  | Water/air interface (surface tension) ([2]; concentration 0.20 wt %): 35.4 mN/m |
| 33 | Sodium linear alkylbenzenesulfonate [NaLAS] |  |  |  |  |
|  | nonylphenol ethoxylate [NPE] |  |  |  | Water/air interface (surface tension) ([2]; concentration 0.02 wt %): 36 mN/m |
|  | sodium lauryl ether sulfate [SLES] |  |  |  | Water/air interface (surface tension) ([2]; concentration 0.02 wt %): 33.8 mN/m |
|  | vitamin E | 28 | 61 | 84 |  |
